Columns and labels:
H1355 T16 xenografts = conditions: for toxicity in treated mice: mouse, in vivo
Protocol: Animals were housed under standard, sterile conditions at UTSW animal facility. All experiments were carried out under approved IACUC protocols and followed UTSW animal care procedures. For tumor growth rate studies and docetaxel+cisplatin drug response comparisons, 6-8 week old female NOD/SCID mice were used. For all subsequent in vivo drug response studies, 6 week old female athymic nude mice were used (Charles River Labs, Jackson Labs). Experimental details are provided in supplemental information.
Parental and resistant NSCLC cell lines (1×10^6 cells in PBS or RPMI for H1299; 5×10^6 cells in PBS/matrigel for H1355 and HCC4017) were injected subcutaneously into the right flank of mice. Tumor growth was monitored by caliper measurements and tumor volume was calculated by 0.5×length×width^2). Treatment was started when tumors reached ˜150-200 mm3. Drug/Vehicle therapy was given to tumor volume matched pairs. Docetaxel (3 mg/kg) and cisplatin (3 mg/kg) were given i.p. once a week for 3 weeks. […]

H1299 T18 cells = test: Microarray gene expression after 24 h treatment, H1299 T18 cells; type: cell-based, human; conditions: for expression difference of top up-regulated gene / gene expression changes (total probes): 24 h; for expression difference of top up-regulated gene / gene expression changes (total probes) / Illumina probes reversed in expression / genes reversed in expression: 0.2 μM JIB-04 or 1 μM GSK-J4; for gene expression changes (total probes): fold changes ≥1.5, P ≤0.05; for Illumina probes reversed in expression / genes reversed in expression: reversal of changes acquired with taxane-platin resistance
Protocol: Gene expression profiling was performed using Illumina HumanWG-6 V3 BeadArrays (for NSCLC patient tumors) or Illumina HumanHT-12 V4 BeadArrays (for cell lines and xenografts). […] Data were pre-processed using the R package mbcb for background correction (Ding et al., 2008), then log-transformed and quantile-normalized with the R package preprocessCore or using in-house MATRIX software ([…]). Microarray data can be found under GEO accession GSE77209. Log ratios, unpaired t-test p values and color-coded heat maps were obtained using MATRIX. For comparisons involving progressively resistant cell line series, analyses were performed using R package by fitting linear regression model on gene expression data against the log transformed IC50 values as measures of drug response. We fitted beta-uniform mixture model to a set of p-values using the R package ClassComparison. […] For xenograft data, differential gene expression analysis was performed by student's t-test. Using 35 gene signature, unsupervised hierarchical clustering (Eisen et al., 1998) was performed to separate neoadjuvant chemotherapy treated patients into two groups. Clustering was based on Euclidean distance matrix and maximum linkage method. Kaplan-Meier survival analysis and multivariate Cox regression were performed by R survival package and replotted using Graphpad Prism 6.00 (GraphPad Software, La Jolla, Calif. USA). R code is provided in […] report.

[1] = tested on: H3K9me3 demethylase activity; test: Histone demethylase activity in tumor lysates by ELISA (H3K9me3); type: in vivo; conditions: H1299 T18 xenografts, drug-treated vs vehicle
Source text: To evaluate whether the targeted KDM enzymatic activity was reduced in the JmjC inhibitor-treated tumors in vivo, the inventors measured histone demethylase activity in drug-treated and vehicle-control tumor lysates by ELISA. […] Altogether, the results confirmed reduction of the targeted KDM enzymatic activity with cytostatic/cytotoxic effects in JmjC inhibitor-treated chemoresistant xenografts.

[2] = tested on: H1299 T18 chemo-resistant cells; test: Colony formation, combination with paclitaxel+carboplatin; type: cell-based, human; conditions: positive ΔBliss
Protocol: All statistical tests including two-way ANOVA with Sidak's multiple comparisons test, one-way ANOVA with Dunnett's multiple comparisontest, post-test for linear trend and unpaired t-tests were performed using GraphPad Prism 6.00. P values are represented as *P<0.05, **P<0.01, ***P<0.001 and ****P<0.0001. For drug treatments, dose response curves and IC50 values were calculated using GraphPad Prism or in-house DIVISA (Database of InVItro Sensitivity Assays; L. Girard). For drug combination in colony formation, delta Bliss excess was calculated as shown previously (Wilson et al., 2014). Bliss expectation was calculated as A+B−(A×B), where A and B denote the fractional responses from drugs A and B given individually. The difference between Bliss expectation and observed response from combination of drugs A and B at the same doses is the delta Bliss excess.
400 cells were seeded per well in six well plates and treated with various drug concentrations the next day. After 2-3 weeks, colonies were stained with 0.5% crystal violet, 3% formaldehyde solution and counted both manually and automatically using Quantity One image analysis software (Bio-Rad).

[3] = tested on: pro-apoptotic/anti-proliferative genes and proliferative/oncogenic genes; test: qRT-PCR of pro-apoptotic and proliferative genes in treated H1299 T18 cells; type: cell-based, human; conditions: 24 h; JIB-04 0.2 μM or GSK-J4 1 μM
Source text: Total RNA was isolated using RNeasy Plus Mini kit (Qiagen) and cDNA was generated using iScript cDNA synthesis kit (BioRad). For epigenetic enzymes, transcripts were detected by SYBR Green chemistry in real time quantitative PCR assays using validated primers. TBP and GAPDH were used as endogenous controls. […] For all non-epigenetic transcripts, TaqMan probes (Life Technologies) were utilized in multiplex with GAPDH internal reference gene. Additionally, a reference sample containing pooled RNA from normal human and tumor tissues (Stratagene) was used. PCR reactions were run using the ABI 7300 Real-time PCR System and analyzed with the included software. The comparative CT method was used to compute relative mRNA expression.

A549 = test: Clonogenic survival with ionizing radiation, A549; type: cell-based, Human; conditions: 25 nM JIB-04; for radiosensitization (clonogenic survival): drug 4 h before IR
Protocol: Cells were serially diluted to appropriate concentrations and plated into 60-mm dish in triplicate for 4 h. Then cells were treated with the indicated drugs, and irradiated 4 hours later with graded doses of radiation for concurrent treatment or irradiated and 4 hours later the drugs added for post-treatment. All cells were irradiated at room temperature in ambient air using a 137Cs source (Mark 1-68 irradiator, JL Shepherd & Associated). Surviving colonies were stained with crystal violet approximately 10 to 14 days later and colonies formed with more than 50 cells were counted. Clonogenic fraction of irradiated cells was normalized to the plating efficiency of unirradiated controls. The data are presented as the mean±SD. The curve S=e^−(αD+βD2) was fitted to the experimental data using a least square fit algorithm using the program Sigma Plot 11.0 (Systat Software, Inc.).

| SMILES | toxicity in treated mice (H1355 T16 xenografts) | expression difference of top up-regulated gene (H1299 T18 cells) | gene expression changes (total probes) (H1299 T18 cells) | Illumina probes reversed in expression (H1299 T18 cells) | genes reversed in expression (H1299 T18 cells) | H3K9me3 demethylase activity in tumor lysates [1] | colony formation in combination with paclitaxel+carboplatin [2] | pro-apoptotic/anti-proliferative gene expression [3] | proliferative/oncogenic gene expression [3] | radiosensitization (clonogenic survival) (A549) | change in tumor volume relative to treatment start (H1355 T16 xenografts; GSK-J4 100 mg/kg i.p. 5x per week, JIB-04 50 mg/kg oral gavage 3x per week, 4 weeks) | top reversed down-regulated gene, fold change (down) (H1299 T18 cells; LEAP2 for JIB-04, TAF9B for GSK-J4) | top reversed up-regulated gene, fold change (up) (H1299 T18 cells; YPEL2 for JIB-04, BNIP3 for GSK-J4) | radiosensitization, JIB-04 before IR vs 4 h post-irradiation (A549) |
| --- | --- | --- | --- | --- | --- | --- | --- | --- | --- | --- | --- | --- | --- | --- |
| CCOC(=O)CCNc1cc(N2CCc3ccccc3CC2)nc(-c2ccccn2)n1 [GSK-J4] | No appreciable toxicity | ~25 fold | 710 probes | 110 probes | 108 genes | without reducing H3K4me3 or H3K9me3 demethylase activity | synergistic inhibition of colony formation | up-regulated | downregulated | failed to radiosensitize | – | – | – | – |
| Clc1ccc(N/N=C(\c2ccccc2)c2ccccn2)nc1 [JIB-04] | No appreciable toxicity | ~16 fold | 1469 probes | About 195 probes | 187 genes | significantly inhibited | synergistic inhibition of colony formation | up-regulated | downregulated | had a radiosensitization/radioenhancement effect | significant tumor shrinkage | ~5 fold | ~16 fold | significantly more robust when administering JIB-04 first |

— patent US11497740B2, “Use of Jumonji C demethylase inhibitors for the treatment and prevention of chemotherapy resistance and radioresistance in cancer” (THE BOARD OF REGENTS OF THE UNIVERSITY OF TEXAS SYSTEM, priority 2016, dated 2022)
